Experimental data from patent US4215110A, “Method of treating hypertension” (Merck & Co., Inc., priority 1978, dated 1980).

Tested on: spontaneously hypertensive (SH) rats
Test: antihypertensive activity test in spontaneously hypertensive (SH) rats
Type: in vivo, rat
Conditions: administered intraperitoneally
Protocol: The present tripeptides have antihypertensive activity. This antihypertensive activity was determined using a test procedure which involved administration of representative compounds to spontaneously hypertensive (SH) rats.

## NC(=O)[C@@H]1CCCN1C(=O)[C@H](Cc1c[nH]cn1)NC(=O)[C@@H]1CCC(=O)N1 [TRH, L-pyroglutamyl-L-histidyl-L-proline-amide]
  antihypertensive activity: significant antihypertensive activity
